Measured values published in paper PMC5218480 (PLoS ONE, 2017).

System: MV-4-11 cells
Assay: Gene expression microarray analysis (Affymetrix PrimeView) and GSEA
Type: cell-based, human
Set-up: RFU PODN (11730768_x_at) / Fold change /veh PODN (11730768_x_at) / RFU LINC00158 (11744669_a_at) / Fold change /veh LINC00158 (11744669_a_at) / RFU DUSP10 (11751237_a_at) / Fold change /veh DUSP10 (11751237_a_at) / RFU ID3 (11757404_x_at) / Fold change /veh ID3 (11757404_x_at) / RFU PLEKHG5 (11737974_s_at) / Fold change /veh PLEKHG5 (11737974_s_at) / RFU LRRC4B (11730491_at) / Fold change /veh LRRC4B (11730491_at) / RFU GIMAP4 (11747438_a_at) / Fold change /veh GIMAP4 (11747438_a_at) / RFU KRT8 (11758183_x_at) / Fold change /veh KRT8 (11758183_x_at) / RFU CNN1 (11734310_a_at) / Fold change /veh CNN1 (11734310_a_at) / RFU VPS37D (11726825_at) / Fold change /veh VPS37D (11726825_at) / RFU C10orf10 (11716522_x_at) / Fold change /veh C10orf10 (11716522_x_at) / RFU KIR2DL2 /// KIR2DL4 /// KIR2DL5A /// KIR2DL5B /// KIR2DS1 /// KIR2DS2 /// KIR2DS3 /// KIR2DS4 /// KIR3DL3 /// KIR3DL3 /// KIR3DS1 (11738374_at) / Fold change /veh KIR2DL2 /// KIR2DL4 /// KIR2DL5A /// KIR2DL5B /// KIR2DS1 /// KIR2DS2 /// KIR2DS3 /// KIR2DS4 /// KIR3DL3 /// KIR3DL3 /// KIR3DS1 (11738374_at) / RFU C1QL1 (11718748_at) / Fold change /veh C1QL1 (11718748_at) / RFU TMPRSS4 (11747572_a_at) / Fold change /veh TMPRSS4 (11747572_a_at) / RFU HAMP (11756126_x_at) / Fold change /veh HAMP (11756126_x_at) / RFU RNFT2 (11725882_a_at) / Fold change /veh RNFT2 (11725882_a_at) / RFU NR4A2 (11747474_a_at) / Fold change /veh NR4A2 (11747474_a_at) / RFU ABCC12 (11746883_a_at) / Fold change /veh ABCC12 (11746883_a_at) / RFU TMEM136 (11760407_x_at) / Fold change /veh TMEM136 (11760407_x_at) / RFU CLDN22 /// WWC2 (11732394_at) / Fold change /veh CLDN22 /// WWC2 (11732394_at) / RFU HLA-DPB1 (11760878_x_at) / Fold change /veh HLA-DPB1 (11760878_x_at) / RFU SPINT1 (11716480_a_at) / Fold change /veh SPINT1 (11716480_a_at) / RFU GAP43 (11754022_s_at) / Fold change /veh GAP43 (11754022_s_at) / RFU A4GNT (11735810_at) / Fold change /veh A4GNT (11735810_at) / RFU PRB3 (11715151_x_at) / Fold change /veh PRB3 (11715151_x_at) / RFU TUBB4B (11761932_at) / Fold change /veh TUBB4B (11761932_at) / RFU CAPN14 (11732068_a_at) / Fold change /veh CAPN14 (11732068_a_at) / RFU TMCC2 (11721928_a_at) / Fold change /veh TMCC2 (11721928_a_at) / RFU IRGQ (11745062_a_at) / Fold change /veh IRGQ (11745062_a_at) / RFU FAM174B (11720279_a_at) / Fold change /veh FAM174B (11720279_a_at) / RFU TMPRSS4 (11748680_a_at) / Fold change /veh TMPRSS4 (11748680_a_at) / RFU FAM212B (11763350_a_at) / Fold change /veh FAM212B (11763350_a_at) / RFU PLEKHG5 (11743358_a_at) / Fold change /veh PLEKHG5 (11743358_a_at) / RFU ZSCAN30 (11745921_a_at) / Fold change /veh ZSCAN30 (11745921_a_at) / RFU CMKLR1 (11741424_a_at) / Fold change /veh CMKLR1 (11741424_a_at) / RFU LOC101060620 /// MAPK8IP1 (11723275_at) / Fold change /veh LOC101060620 /// MAPK8IP1 (11723275_at) / RFU SPTSSB (11747773_x_at) / Fold change /veh SPTSSB (11747773_x_at) / RFU PRSS12 (11739890_at) / Fold change /veh PRSS12 (11739890_at) / RFU BIN1 (11741810_x_at) / Fold change /veh BIN1 (11741810_x_at) / RFU WNT11 (11732464_a_at) / Fold change /veh WNT11 (11732464_a_at) / RFU C10orf10 (11716521_a_at) / Fold change /veh C10orf10 (11716521_a_at) / RFU C5orf56 (11738089_at) / Fold change /veh C5orf56 (11738089_at) / RFU CYB561 (11721691_x_at) / Fold change /veh CYB561 (11721691_x_at) / RFU ANKRD19P (11752326_a_at) / Fold change /veh ANKRD19P (11752326_a_at) / RFU OR2T12 /// OR2T33 /// OR2T8 (11738714_s_at) / Fold change /veh OR2T12 /// OR2T33 /// OR2T8 (11738714_s_at) / RFU VCAN (11748164_a_at) / Fold change /veh VCAN (11748164_a_at) / RFU JSRP1 (11732532_at) / Fold change /veh JSRP1 (11732532_at) / RFU KRTAP10-11 (11738290_x_at) / Fold change /veh KRTAP10-11 (11738290_x_at) / RFU MYO3A (11730013_a_at) / Fold change /veh MYO3A (11730013_a_at) / RFU EBF3 (11725865_a_at) / Fold change /veh EBF3 (11725865_a_at) / RFU CAMK2N1 (11719241_x_at) / Fold change /veh CAMK2N1 (11719241_x_at) / RFU C5orf56 (11738088_a_at) / Fold change /veh C5orf56 (11738088_a_at) / RFU OLFML3 (11715873_a_at) / Fold change /veh OLFML3 (11715873_a_at) / RFU LOC100653217 /// NTM (11731650_a_at) / Fold change /veh LOC100653217 /// NTM (11731650_a_at) / RFU MAPK11 (11762145_a_at) / Fold change /veh MAPK11 (11762145_a_at) / RFU FIZ1 (11724087_x_at) / Fold change /veh FIZ1 (11724087_x_at) / RFU OASL (11726364_x_at) / Fold change /veh OASL (11726364_x_at) / RFU SOX15 (11748057_x_at) / Fold change /veh SOX15 (11748057_x_at) / RFU CD79A (11719716_a_at) / Fold change /veh CD79A (11719716_a_at) / RFU HIST1H1D (11736915_at) / Fold change /veh HIST1H1D (11736915_at) / RFU CASKIN2 (11723855_a_at) / Fold change /veh CASKIN2 (11723855_a_at) / RFU LOC730098 (11760151_x_at) / Fold change /veh LOC730098 (11760151_x_at) / RFU OR4N2 (11742367_at) / Fold change /veh OR4N2 (11742367_at) / RFU PRRT2 (11749266_a_at) / Fold change /veh PRRT2 (11749266_a_at) / RFU SNX32 (11753110_a_at) / Fold change /veh SNX32 (11753110_a_at) / RFU CDHR5 (11726645_a_at) / Fold change /veh CDHR5 (11726645_a_at) / RFU RCAN1 (11760418_a_at) / Fold change /veh RCAN1 (11760418_a_at) / RFU FAM167A (11723789_a_at) / Fold change /veh FAM167A (11723789_a_at) / RFU FAM26E (11764081_at) / Fold change /veh FAM26E (11764081_at) / RFU ISYNA1 (11749810_s_at) / Fold change /veh ISYNA1 (11749810_s_at) / RFU ACY1 (11761880_at) / Fold change /veh ACY1 (11761880_at) / RFU 11764098_at / Fold change /veh 11764098_at / RFU SAMD14 (11745864_x_at) / Fold change /veh SAMD14 (11745864_x_at) / RFU NPB (11741838_a_at) / Fold change /veh NPB (11741838_a_at) / RFU TMPRSS6 (11731388_a_at) / Fold change /veh TMPRSS6 (11731388_a_at) / RFU KRTAP10-2 (11738614_at) / Fold change /veh KRTAP10-2 (11738614_at) / RFU ARHGAP8 /// PRR5-ARHGAP8 (11727945_x_at) / Fold change /veh ARHGAP8 /// PRR5-ARHGAP8 (11727945_x_at) / RFU KRTAP5-7 /// NADSYN1 (11734609_at) / Fold change /veh KRTAP5-7 /// NADSYN1 (11734609_at) / RFU RASL12 (11751679_a_at) / Fold change /veh RASL12 (11751679_a_at) / RFU CDKN2B (11736163_a_at) / Fold change /veh CDKN2B (11736163_a_at) / RFU PRF1 (11729649_at) / Fold change /veh PRF1 (11729649_at) / RFU, ZNF638 /// ZNF638-IT1 / Fold change vs veh, ZNF638 /// ZNF638-IT1 / RFU, PANK3 / Fold change vs veh, PANK3 / RFU, SH3YL1 / Fold change vs veh, SH3YL1 / RFU, ZEB2 / Fold change vs veh, ZEB2 / RFU, NRIP1 / Fold change vs veh, NRIP1 / RFU, PTTG1IP / Fold change vs veh, PTTG1IP / RFU, CAPN2 / Fold change vs veh, CAPN2 / RFU, MED14 / Fold change vs veh, MED14 / RFU, SNORA58 / Fold change vs veh, SNORA58 / RFU, C1orf63 / Fold change vs veh, C1orf63 / RFU, LRRFIP1 / Fold change vs veh, LRRFIP1 / RFU, NDUFAF7 / Fold change vs veh, NDUFAF7 / RFU, SLC12A2 / Fold change vs veh, SLC12A2 / RFU, IBTK / Fold change vs veh, IBTK / RFU, ESF1 / Fold change vs veh, ESF1 / Fold change vs veh, TMEM50B / RFU, TAOK1 / Fold change vs veh, TAOK1 / RFU, ACBD3 / Fold change vs veh, ACBD3 / RFU, TMA16 / Fold change vs veh, TMA16 / RFU, RWDD3 / Fold change vs veh, RWDD3 / RFU, BCAT1 / Fold change vs veh, BCAT1 / RFU, EDEM3 / Fold change vs veh, EDEM3 / RFU, TMEM33 / Fold change vs veh, TMEM33 / RFU, WDR75 / Fold change vs veh, WDR75 / RFU, AHCTF1 / Fold change vs veh, AHCTF1 / RFU, TFRC / Fold change vs veh, TFRC / RFU, ZDHHC17 / Fold change vs veh, ZDHHC17 / RFU, NOM1 / Fold change vs veh, NOM1 / RFU, ARL8B / Fold change vs veh, ARL8B / RFU, ZBTB11 / Fold change vs veh, ZBTB11 / RFU, TAMM41 / Fold change vs veh, TAMM41 / RFU, KIAA1704 /// LOC100996395 / Fold change vs veh, KIAA1704 /// LOC100996395 / RFU, ING1 / Fold change vs veh, ING1 / RFU, TRMT61B / Fold change vs veh, TRMT61B / RFU, FUBP3 / Fold change vs veh, FUBP3 / RFU, TP53 / Fold change vs veh, TP53 / RFU, TNKS2 / Fold change vs veh, TNKS2 / RFU, ZFP14 / Fold change vs veh, ZFP14 / RFU, ACTR2 / Fold change vs veh, ACTR2 / RFU, PPP3R1 / Fold change vs veh, PPP3R1 / RFU, PIK3R1 / Fold change vs veh, PIK3R1 / RFU, HNRNPA1 / Fold change vs veh, HNRNPA1 / RFU, RNF170 / Fold change vs veh, RNF170 / RFU, ZNF28 / Fold change vs veh, ZNF28 / RFU, RNGTT / Fold change vs veh, RNGTT / RFU, OGT / Fold change vs veh, OGT / RFU, BRD1 / Fold change vs veh, BRD1 / RFU, MARS / Fold change vs veh, MARS / RFU, ZNF655 / Fold change vs veh, ZNF655 / RFU, FAHD1 / Fold change vs veh, FAHD1 / RFU, BDP1 / Fold change vs veh, BDP1 / RFU, LRRCC1 / Fold change vs veh, LRRCC1 / RFU, ARID1A / Fold change vs veh, ARID1A / RFU, ZNF146 / Fold change vs veh, ZNF146 / RFU, ZNF330 / Fold change vs veh, ZNF330 / RFU, GPN3 / Fold change vs veh, GPN3 / RFU, C9orf123 / Fold change vs veh, C9orf123 / RFU, N4BP2L2 / Fold change vs veh, N4BP2L2 / RFU, ARFIP1 / Fold change vs veh, ARFIP1 / RFU, FAM179B / Fold change vs veh, FAM179B / RFU, BCL10 / Fold change vs veh, BCL10 / RFU, UHRF1BP1L / Fold change vs veh, UHRF1BP1L / RFU, BET1 / Fold change vs veh, BET1 / RFU, CNOT2 / Fold change vs veh, CNOT2 / RFU, ZNF268 / Fold change vs veh, ZNF268 / Fold change vs veh, ZNF507 / RFU, DGCR2 / Fold change vs veh, DGCR2 / RFU, WDSUB1 / Fold change vs veh, WDSUB1 / Fold change vs veh, HSP90B1 /// MIR3652 / RFU, ADSS / Fold change vs veh, ADSS / RFU, GK / Fold change vs veh, GK / RFU, ZNF148 / Fold change vs veh, ZNF148 / RFU, TAF9 / Fold change vs veh, TAF9 / RFU, SLC1A5 / Fold change vs veh, SLC1A5 / RFU, SLMO2 / Fold change vs veh, SLMO2 / RFU, ABCC4 / Fold change vs veh, ABCC4 / RFU, LOC101060439 /// RAP1B / Fold change vs veh, LOC101060439 /// RAP1B / RFU, RFX7 / Fold change vs veh, RFX7 / RFU, GTPBP10 / Fold change vs veh, GTPBP10 / RFU, CNEP1R1 / Fold change vs veh, CNEP1R1 / RFU, BIVM-ERCC5 /// ERCC5 / Fold change vs veh, BIVM-ERCC5 /// ERCC5 / RFU, ILF3 / Fold change vs veh, ILF3 / RFU 11762660_at / Fold change /veh 11762660_at / RFU VCAN (11757783_s_at) / Fold change /veh VCAN (11757783_s_at) / RFU DDX43 (11728927_at) / Fold change /veh DDX43 (11728927_at) / RFU KRT8 (11758188_x_at) / Fold change /veh KRT8 (11758188_x_at) / RFU NKD1 (11759106_at) / Fold change /veh NKD1 (11759106_at) / RFU SRD5A1 (11742802_a_at) / Fold change /veh SRD5A1 (11742802_a_at) / RFU TPSAB1 /// TPSB2 (11721975_s_at) / Fold change /veh TPSAB1 /// TPSB2 (11721975_s_at) / RFU GSTM3 (11746129_a_at) / Fold change /veh GSTM3 (11746129_a_at) / RFU IL23R (11737362_x_at) / Fold change /veh IL23R (11737362_x_at) / RFU TMEM51 (11727254_a_at) / Fold change /veh TMEM51 (11727254_a_at) / RFU PIWIL2 (11732686_x_at) / Fold change /veh PIWIL2 (11732686_x_at) / RFU ORM1 (11744905_x_at) / Fold change /veh ORM1 (11744905_x_at) / RFU CCDC152 (11743942_at) / Fold change /veh CCDC152 (11743942_at) / RFU ECM1 (11717891_a_at) / Fold change /veh ECM1 (11717891_a_at) / RFU IL23R (11748794_a_at) / Fold change /veh IL23R (11748794_a_at) / RFU TNFAIP8L3 (11732012_x_at) / Fold change /veh TNFAIP8L3 (11732012_x_at) / RFU MBOAT4 (11741988_at) / Fold change /veh MBOAT4 (11741988_at) / RFU 11764193_at / Fold change /veh 11764193_at / RFU TMEM53 (11763286_at) / Fold change /veh TMEM53 (11763286_at) / RFU MAGEB2 (11727129_at) / Fold change /veh MAGEB2 (11727129_at) / RFU TMEM200A (11744735_a_at) / Fold change /veh TMEM200A (11744735_a_at) / RFU CCDC152 (11751479_a_at) / Fold change /veh CCDC152 (11751479_a_at) / RFU FAM211A (11726209_a_at) / Fold change /veh FAM211A (11726209_a_at) / RFU RGS16 (11746705_a_at) / Fold change /veh RGS16 (11746705_a_at) / RFU VCAN (11755009_s_at) / Fold change /veh VCAN (11755009_s_at) / RFU RHOB (11743442_s_at) / Fold change /veh RHOB (11743442_s_at) / RFU RGS16 (11720943_a_at) / Fold change /veh RGS16 (11720943_a_at) / RFU RGS16 (11720944_at) / Fold change /veh RGS16 (11720944_at) / RFU, VPS4B / Fold change vs veh, VPS4B / RFU, CREB1 / Fold change vs veh, CREB1 / RFU, DNAJC13 / Fold change vs veh, DNAJC13 / RFU, GNAQ / Fold change vs veh, GNAQ / RFU, CDK5R1 / Fold change vs veh, CDK5R1 / RFU, ZRANB3 / Fold change vs veh, ZRANB3 / RFU, CUL4A / Fold change vs veh, CUL4A / RFU, CCNY / Fold change vs veh, CCNY / RFU, UFL1 / Fold change vs veh, UFL1 / RFU, COG3 / Fold change vs veh, COG3 / RFU, DIAPH2 / Fold change vs veh, DIAPH2 / RFU, SKA2 / Fold change vs veh, SKA2 / RFU, AFF3 / Fold change vs veh, AFF3 / RFU, LMF1 / Fold change vs veh, LMF1 / RFU, IPO11 / Fold change vs veh, IPO11 / RFU, DFFB / Fold change vs veh, DFFB / RFU, FOXP1 / Fold change vs veh, FOXP1 / RFU, CARD8 / Fold change vs veh, CARD8 / RFU, STRN3 / Fold change vs veh, STRN3 / RFU, ADK / Fold change vs veh, ADK / RFU, RASSF2 / Fold change vs veh, RASSF2 / RFU, WIPF1 / Fold change vs veh, WIPF1 / RFU, LARP1B / Fold change vs veh, LARP1B / RFU, RASA1 / Fold change vs veh, RASA1 / RFU, RB1 / Fold change vs veh, RB1 / RFU, PPFIA1 / Fold change vs veh, PPFIA1 / RFU, MAT2A / Fold change vs veh, MAT2A / RFU, CCT5 / Fold change vs veh, CCT5 / RFU, WDR92 / Fold change vs veh, WDR92 / RFU, CUX1 / Fold change vs veh, CUX1 / RFU, TTC7A / Fold change vs veh, TTC7A / RFU, TMEM135 / Fold change vs veh, TMEM135 / RFU, DEPTOR / Fold change vs veh, DEPTOR / RFU, CPM / Fold change vs veh, CPM / RFU, DNAJB6 / Fold change vs veh, DNAJB6 / RFU, CACNA2D3 / Fold change vs veh, CACNA2D3 / RFU, DTX4 / Fold change vs veh, DTX4 / RFU, TFCP2 / Fold change vs veh, TFCP2 / RFU, GMCL1 /// GMCL1P1 / Fold change vs veh, GMCL1 /// GMCL1P1 / RFU, AEBP2 / Fold change vs veh, AEBP2 / RFU, SNHG1 /// SNORD22 /// SNORD25 /// SNORD26 /// SNORD27 /// SNORD28 /// SNORD29 /// SNORD31 / Fold change vs veh, SNHG1 /// SNORD22 /// SNORD25 /// SNORD26 /// SNORD27 /// SNORD28 /// SNORD29 /// SNORD31 / Fold change (Aza/veh), C12orf56 (ProbeSet 11735607_a_at) / Fold change (ACY-1035/veh), C12orf56 (ProbeSet 11735607_a_at) / Fold change (Aza/veh), FGFR1OP (ProbeSet 11751329_s_at) / Fold change (ACY-1035/veh), FGFR1OP (ProbeSet 11751329_s_at) / Fold change (Aza/veh), VPS36 (ProbeSet 11739960_a_at) / Fold change (ACY-1035/veh), VPS36 (ProbeSet 11739960_a_at) / RFU SYPL1 (11715823_x_at) / Fold change /veh SYPL1 (11715823_x_at) / RFU IGFBP7 (11715501_s_at) / Fold change /veh IGFBP7 (11715501_s_at) / RFU REEP3 (11722064_at) / Fold change /veh REEP3 (11722064_at) / RFU IGLL1 (11728026_x_at) / Fold change /veh IGLL1 (11728026_x_at): dose or concentration left out as unconfirmed
Conditions: ProbeSet 11727958_a_at; LIST B

Structure (SMILES): Nc1ncn([C@@H]2O[C@H](CO)[C@@H](O)[C@H]2O)c(=O)n1 [azacitidine]
- Fold change vs veh, ING1: 0.99
